Laboratory results as given in the Deep4Chem optical property database.

Test: photoluminescence quantum yield (fraction); solvent given as SMILES

`COc1c2ccccc2c(OC)c2c1c1cc(F)ccc1n2C` gave a photoluminescence quantum yield (in C1CCCCC1) of 0.39, a photoluminescence quantum yield (in CC#N) of 0.34 and a photoluminescence quantum yield (in CO) of 0.33. The photoluminescence quantum yield (in ClCCl) was 0.37.
In the case of `Cc1cc(=O)oc2cc3c4ccccc4c4ccccc4c3cc12`, the photoluminescence quantum yield (in CO) is reported as 0.09 and the photoluminescence quantum yield (in ClC(Cl)Cl) is reported as 0.12.
With `c1ccc2c(-c3cc(-c4nccs4)nc(-c4nccs4)c3)cccc2c1` the photoluminescence quantum yield (in CC#N) was 0.33, the photoluminescence quantum yield (in CCCCCC) was 0.411 and the photoluminescence quantum yield (in CO) was 0.207. It also gave a photoluminescence quantum yield (in ClC(Cl)Cl) of 0.439.
With `COC(=O)C(Cc1ccc2oc(-c3ccc(-n4c5ccccc5c5ccccc54)cc3)nc2c1)NC(=O)OC(C)(C)C` (stereo not drawn) the photoluminescence quantum yield (in C1CCCCC1) was 0.94, the photoluminescence quantum yield (in C1CCOC1) was 0.53 and the photoluminescence quantum yield (in C1COCCO1) was 0.62. The photoluminescence quantum yield (in CC1CCCO1) was 0.52, the photoluminescence quantum yield (in CC#N) was 0.46 and the photoluminescence quantum yield (in CC(C)(C)O) was 0.81. For the same compound, the photoluminescence quantum yield (in CC(C)=O) was 0.44, the photoluminescence quantum yield (in CC(C)CC(C)(C)C) was 0.55 and the photoluminescence quantum yield (in CC(C)O) was 0.59. For the same compound, the photoluminescence quantum yield (in CC(O)CO) was 0.55, the photoluminescence quantum yield (in CCCCCCCO) was 0.65 and the photoluminescence quantum yield (in CCCCCCO) was 0.73. For the same compound, the photoluminescence quantum yield (in CCCCCO) was 0.77, the photoluminescence quantum yield (in CCCCO) was 0.69 and the photoluminescence quantum yield (in CCO) was 0.63. For the same compound, the photoluminescence quantum yield (in CCOC(C)=O) was 0.54, the photoluminescence quantum yield (in CCOCC) was 0.56 and the photoluminescence quantum yield (in CN(C)C=O) was 0.58. The photoluminescence quantum yield (in CO) was 0.36, the photoluminescence quantum yield (in CS(C)=O) was 0.47 and the photoluminescence quantum yield (in Cc1ccccc1) was 0.69. For the same compound, the photoluminescence quantum yield (in OCCO) was 0.52.
`CCCCCCOc1cc(C=C(C#N)C#N)c(OCCCCCC)cc1C=C(C#N)C#N` gave a photoluminescence quantum yield (in ClCCl) of 0.868.
`COC(=O)CC1(C(=O)OC)Oc2c(c(C(C)=O)c3c(c2C(C)=O)OCO3)O1` showed a photoluminescence quantum yield (in CC#N) of 0.62.
`COc1ccc(-c2cc3c(s2)c(C(C)=O)cc(=O)n3Cc2ccccc2)cc1` gave a photoluminescence quantum yield (in CC#N) of 0.61 and a photoluminescence quantum yield (in ClCCl) of 0.99.
In the case of `CCCCn1c(-c2ccc(-c3nnc(-c4ccc(-c5nc(-c6ccccc6)c(-c6ccccc6)n5CCCC)cc4)o3)cc2)nc(-c2ccccc2)c1-c1ccccc1`, the photoluminescence quantum yield (in ClCCl) is reported as 0.69.
`[NH3+]c1cc([NH3+])cc(-c2[nH+]c3ccccc3s2)c1` showed a photoluminescence quantum yield (in O) of 0.008.
For `C(=C1c2ccccc2-c2ccccc21)c1ccc(-c2ccc(C=C3c4ccccc4-c4ccccc43)cc2)cc1`, the photoluminescence quantum yield (in C1CCOC1) was 0.0015.
`CCc1c(C)c2n(c1C)[B-](F)(F)[N+]1=C(C=C3c4ccccc4-c4ccccc43)C=CC1=C2C` gave a photoluminescence quantum yield (in C1CCCCC1) of 0.73.
`COc1ccc(-c2nc(-c3cccc(OC)c3)[nH]c2-c2ccc(OC)cc2)cc1` gave a photoluminescence quantum yield (in CO) of 0.25.
For `FC(F)(F)c1ccc(C#Cc2ncc(-c3ccccc3)o2)cc1`, the photoluminescence quantum yield (in ClCCl) was 0.24.
In the case of `C1=Cc2ccc(N(c3ccccc3)c3ccccc3)cc2C2(c3cc(N(c4ccccc4)c4ccccc4)ccc31)c1ccccc1-c1ccccc12`, the photoluminescence quantum yield (in ClCCl) is reported as 0.9.
`COc1ccc(C2=C(c3ccc(OC)cc3)C(C)(C)c3c2ccc2ccccc32)cc1` gave a photoluminescence quantum yield (in C1CCCCC1) of 0.11.
In the case of `O=P1(c2ccccc2)c2ccccc2-c2sc3ccccc3c21` (stereo not drawn), the photoluminescence quantum yield (in ClCCl) is reported as 0.71.
Compound `Fc1c(F)c(-n2c3ccccc3c3ccccc32)c(F)c(F)c1/C=C/C(=C(c1ccccc1)c1ccccc1)c1ccccc1` has a photoluminescence quantum yield (in Cc1ccccc1) of 0.001.
Compound `CCCCCCCCCCCCCCCCCCN1C(=O)c2ccc3c4ccc5c6c(ccc(c7ccc(c2c37)C1=O)c64)C(=O)NC5=O` has a photoluminescence quantum yield (in CN(C)C=O) of 0.37.
Compound `Cn1c(=O)c(/N=N/c2ccc(S(=O)(=O)O)c3ccccc23)c(O)c2ccccc21` has a photoluminescence quantum yield (in CS(C)=O) of 0.02.
Compound `CCC1(CC)c2ccccc2-c2c1c1c(c3c2C(CC)(CC)c2cc(/C=C/c4cccs4)ccc2-3)C(CC)(CC)c2ccccc2-1` has a photoluminescence quantum yield (in C1CCOC1) of 0.23.
Compound `Cc1ccc(C2=C3C=CC(c4ccccc4)=[N+]3[B-](F)(F)n3c(Cl)ccc32)cc1` has a photoluminescence quantum yield (in C1CCCCC1) of 0.076, a photoluminescence quantum yield (in C1CCOC1) of 0.084 and a photoluminescence quantum yield (in C1COCCO1) of 0.079. It also gave a photoluminescence quantum yield (in CCOC(C)=O) of 0.046, a photoluminescence quantum yield (in CO) of 0.037 and a photoluminescence quantum yield (in Cc1ccccc1) of 0.13. For the same compound, the photoluminescence quantum yield (in ClC(Cl)Cl) was 0.095.
For `CC1(C)c2ccccc2N(c2ccc(-c3cc(C#N)c(C#N)cc3-c3ccc(N4c5ccccc5C(C)(C)c5ccccc54)cc3)cc2)c2ccccc21`, the photoluminescence quantum yield (in Cc1ccccc1) was 0.59 and the photoluminescence quantum yield (in c1cc(-c2cccc(-n3c4ccccc4c4ccccc43)c2)cc(-n2c3ccccc3c3ccccc32)c1) was 0.86.
With `c1ccc(-c2nc(-c3ccccc3)nc(-c3ccc(-n4c5ccc(-n6c7ccccc7c7ccccc76)cc5c5cc(-n6c7ccccc7c7ccccc76)ccc54)cc3)n2)cc1` the photoluminescence quantum yield (in Cc1ccccc1) was 0.57.
For `c1ccc(-c2nc(-c3ccccc3)nc(-c3cc(-n4c5ccccc5c5ccccc54)c(-n4c5ccccc5c5ncccc54)c(-n4c5ccccc5c5ccccc54)c3)n2)cc1`, the photoluminescence quantum yield (in O=P(c1ccccc1)(c1ccccc1)c1ccc2oc3ccc(P(=O)(c4ccccc4)c4ccccc4)cc3c2c1) was 0.79.
In the case of `CCCCC(CC)Cn1c2cc(C#N)ccc2c2ccc(C#Cc3cc(C#Cc4ccc5c6ccc(C#N)cc6n(CC(CC)CCCC)c5c4)c4ccc5c(C#Cc6ccc7c8ccc(C#N)cc8n(CC(CC)CCCC)c7c6)cc(C#Cc6ccc7c8ccc(C#N)cc8n(CC(CC)CCCC)c7c6)c6ccc3c4c65)cc21` (stereo not drawn), the photoluminescence quantum yield (in ClCCl) is reported as 0.61.
`CCCC1=CC2=C(c3c(C)cc(C)cc3C)c3cc(CCC)c(-c4ccc5ccc6cccc7ccc4c5c67)n3[B-](F)(F)[N+]2=C1c1ccc2ccc3cccc4ccc1c2c34` gave a photoluminescence quantum yield (in ClC(Cl)Cl) of 0.64.
Work on `CCCCCCN1C(=O)c2cccc3cc(/N=C\c4cnc5ccccc5c4)cc(c23)C1=O` yielded a photoluminescence quantum yield (in ClC(Cl)Cl) of 0.006.
`c1ccc(N(c2ccccc2)c2ccc(-c3ncc(-c4cnc(-c5ccc(N(c6ccccc6)c6ccccc6)cc5)s4)s3)cc2)cc1` showed a photoluminescence quantum yield (in CO) of 0.2.
Work on `Cc1cc(C)c(B(c2c(C)cc(C)cc2C)c2cc3ccc4ccccc4c3c3c2cc(N(C)C)c2ccccc23)c(C)c1` yielded a photoluminescence quantum yield (in C1CCCCC1) of 0.23, a photoluminescence quantum yield (in C1CCOC1) of 0.09 and a photoluminescence quantum yield (in CC#N) of 0.04. It also gave a photoluminescence quantum yield (in ClC(Cl)Cl) of 0.1 and a photoluminescence quantum yield (in c1ccccc1) of 0.14.
Work on `C[Si](C)(C)C#CC(C#C[Si](C)(C)C)=Cc1ccc(C=C(C#C[Si](C)(C)C)C#C[Si](C)(C)C)s1` yielded a photoluminescence quantum yield (in ClC(Cl)Cl) of 0.01.
For `O=C1c2ccccc2-c2ccc(N3CCN(c4ccccc4)CC3)c3cccc1c23`, the photoluminescence quantum yield (in C1CCCCC1) was 0.424, the photoluminescence quantum yield (in C1CCOC1) was 0.123 and the photoluminescence quantum yield (in C1COCCO1) was 0.42. It also gave a photoluminescence quantum yield (in CC1COC(=O)O1) of 0.009, a photoluminescence quantum yield (in CC#N) of 0.005 and a photoluminescence quantum yield (in CC(C)=O) of 0.011. For the same compound, the photoluminescence quantum yield (in CCCCCCCCO) was 0.018, the photoluminescence quantum yield (in CCCCCO) was 0.017 and the photoluminescence quantum yield (in CCCCO) was 0.014. It also gave a photoluminescence quantum yield (in CCCO) of 0.021, a photoluminescence quantum yield (in CCO) of 0.007 and a photoluminescence quantum yield (in CCOC(C)=O) of 0.108. It also gave a photoluminescence quantum yield (in CN(C)C=O) of 0.005, a photoluminescence quantum yield (in CO) of 0.004 and a photoluminescence quantum yield (in CS(C)=O) of 0.004. The photoluminescence quantum yield (in Cc1ccccc1) was 0.431 and the photoluminescence quantum yield (in ClC(Cl)Cl) was 0.348.
For `c1ccc(C2=Nc3cccc4[n+]3[B-](c3ccccc3)(N2)NC(c2ccccc2)=N4)cc1`, the photoluminescence quantum yield (in ClCCl) was 0.13.
Work on `CC(C)(C)c1ccc(C2=Cc3cc4c(cc3P2(=O)c2ccccc2)C=C(c2ccc(C(C)(C)C)cc2)P4(=O)c2ccccc2)cc1` (stereo not drawn) yielded a photoluminescence quantum yield (in C1CCOC1) of 0.44.
For `CCCCN1C(=O)c2cc(Oc3ccc(C(C)(C)C)cc3)c3c4c(Oc5ccc(C(C)(C)C)cc5)cc5c(=O)[nH]/c(=C\c6ccc7ccccc7n6)c6cc(Oc7ccc(C(C)(C)C)cc7)c(c7c(Oc8ccc(C(C)(C)C)cc8)cc(c2c37)C1=O)c4c56`, the photoluminescence quantum yield (in C1CCOC1) was 0.3, the photoluminescence quantum yield (in Cc1ccccc1) was 0.313 and the photoluminescence quantum yield (in ClCCl) was 0.332.
Compound `CC[n+]1nc2cc3c(cc2c2cc(C)ccc21)N(C)CCC3` has a photoluminescence quantum yield (in O) of 0.54.
With `CC(=O)OCCN1C(=O)c2cccc3c(Oc4ccccc4C)ccc(c23)C1=O` the photoluminescence quantum yield (in ClC(Cl)Cl) was 0.12.
`O=c1[nH]c2[n+](c3ccccc13)[B-](F)(F)Oc1ccccc1-2` gave a photoluminescence quantum yield (in CC#N) of 0.201 and a photoluminescence quantum yield (in Cc1ccccc1) of 0.24.
In the case of `N#Cc1ccc(-c2cc3c(ccc4sccc43)s2)cc1`, the photoluminescence quantum yield (in ClCCl) is reported as 0.22.
`COc1ccc(-c2nc(-c3cccc(C#N)c3)[nH]c2-c2ccc(OC)cc2)cc1` showed a photoluminescence quantum yield (in CO) of 0.06.
For `O=C(O)CCCc1ccc2ccc3cccc4ccc1c2c34`, the photoluminescence quantum yield (in CO) was 0.68.
For `Cc1ccccc1`, the photoluminescence quantum yield (in C1CCCCC1) was 0.22.
Work on `Cc1ccc(-c2cc(-c3ccccc3)c3c(N)nc(N4CCCC4)c(C#N)c3n2)cc1` yielded a photoluminescence quantum yield (in CC#N) of 0.046 and a photoluminescence quantum yield (in c1ccccc1) of 0.073.
In the case of `c1ccc2cc3c4c(ccc3cc2c1)-c1cccc2cccc-4c12`, the photoluminescence quantum yield (in CCCCCCC) is reported as 0.023.
In the case of `CC(C)(C)c1ccc(C2=C(Br)C3=C(c4ccccc4)c4c(Br)c(-c5ccc(C(C)(C)C)cc5)c(-c5ccc(C(C)(C)C)cc5)n4[B-](F)(F)[N+]3=C2c2ccc(C(C)(C)C)cc2)cc1`, the photoluminescence quantum yield (in C1CCCCC1) is reported as 0.13, the photoluminescence quantum yield (in C1CCOC1) is reported as 0.11 and the photoluminescence quantum yield (in CC#N) is reported as 0.03. For the same compound, the photoluminescence quantum yield (in Cc1ccccc1) was 0.1 and the photoluminescence quantum yield (in ClCCl) was 0.09.
`O=c1oc2ccc(Cl)cc2cc1-c1cc2cc(Cl)ccc2o1` gave a photoluminescence quantum yield (in CS(C)=O) of 0.2.
For `CCc1cc(CC)cc(-n2c3ccccc3c3cc4c(cc32)c2ccccc2n4-c2cc(CC)cc(CC)c2)c1`, the photoluminescence quantum yield (in ClC(Cl)Cl) was 0.14.
Work on `CC1=[N+]2C(=C(c3cccs3)c3ccc(C)n3[B-]2(F)F)C=C1c1cc2n(c1)[B-](F)(F)[N+]1=CC=CC1=C2c1c(C)cc(C)cc1C` yielded a photoluminescence quantum yield (in C1CCCCC1) of 0.62 and a photoluminescence quantum yield (in CCOC(C)=O) of 0.12.
With `COC(=O)c1ccc(NC(=O)c2ccc(N(C)C)cc2)cc1` the photoluminescence quantum yield (in C1CCCCC1) was 0.0148, the photoluminescence quantum yield (in C1CCOC1) was 0.198 and the photoluminescence quantum yield (in CC#N) was 0.0209. The photoluminescence quantum yield (in CCOCC) was 0.0512.
For `CCn1c2c(-c3cccs3)cc(C(C)(C)C)cc2c2cc(C(C)(C)C)cc(-c3cccs3)c21`, the photoluminescence quantum yield (in ClCCl) was 0.064.
For `CCOC(=O)c1ccccc1-c1c2ccc(=[N+](CC)CC)cc-2oc2c1oc1cc(N)ccc12`, the photoluminescence quantum yield (in CCO) was 0.501, the photoluminescence quantum yield (in ClCCl) was 0.732 and the photoluminescence quantum yield (in O) was 0.088.
In the case of `N#Cc1ccc(-n2c(-c3ccc(-c4ccc(-c5nc6c7ccccc7c7ccccc7c6n5-c5ccc(C#N)c6ccccc56)c5ccccc45)c4ccccc34)nc3c4ccccc4c4ccccc4c32)c2ccccc12`, the photoluminescence quantum yield (in ClCCl) is reported as 0.9.
`Cc1cc2sccc2c2[nH]c3ccccc3c12` showed a photoluminescence quantum yield (in ClCCl) of 0.053.
For `C(/C=C/C1=[NH+]c2cccc3cccc1c23)=c1/[nH]c2cccc3cccc1c32`, the photoluminescence quantum yield (in CO) was 0.0013.
